Source: ChEMBL document CHEMBL4507310, “Data for DCP probe A-1211212” (2021)

Legend:
[1] = molecular target: P2X receptor (Rattus norvegicus) (UniProt P51579+P49653+P51578+Q64663+P47824+P51577+P49654); assay: P2X Eurofins-Cerep binding assay; type: protein assay; parameters: ligand concentration 3 nM; conditions: filed as agonist, Compound concentration 10.0 uM
Rattus norvegicus = species on record: Rattus norvegicus; assay: SKCa channel Eurofins-Cerep binding assay; parameters: ligand concentration 0.007 nM; conditions: filed as antagonist, Compound concentration 10.0 uM
[2] = molecular target: Sodium-dependent noradrenaline transporter (Homo sapiens) (UniProt P23975); assay: norepinephrine transporter (h) Eurofins-Cerep binding assay; parameters: ligand concentration 1 nM; conditions: filed as antagonist, Compound concentration 10.0 uM
[3] = molecular target: AP2-associated protein kinase 1 (Homo sapiens) (UniProt Q2M2I8); conditions: Compound concentration 1000.0 nM
[4] = test system: Tyrosine-protein kinase ABL1 (Homo sapiens), P00519 [H396P]; conditions: Compound concentration 1000.0 nM
[5] = molecular target: Tyrosine-protein kinase ABL2 (Homo sapiens) (UniProt P42684); conditions: Compound concentration 1000.0 nM
[6] = molecular target: Calcium/calmodulin-dependent protein kinase type 1D (Homo sapiens) (UniProt Q8IU85); conditions: Compound concentration 1000.0 nM
[7] = molecular target: Calcium/calmodulin-dependent protein kinase kinase 1 (Homo sapiens) (UniProt Q8N5S9); conditions: Compound concentration 1000.0 nM
[8] = molecular target: Cyclin-dependent kinase 11A (Homo sapiens) (UniProt Q9UQ88); conditions: Compound concentration 1000.0 nM
[9] = molecular target: Cyclin-dependent kinase 8 (Homo sapiens) (UniProt P49336); conditions: Compound concentration 1000.0 nM
[10] = molecular target: Serine/threonine-protein kinase Chk2 (Homo sapiens) (UniProt O96017); conditions: Compound concentration 1000.0 nM
[11] = molecular target: Citron Rho-interacting kinase (Homo sapiens) (UniProt O14578); conditions: Compound concentration 1000.0 nM
[12] = molecular target: Dual specificity protein kinase CLK4 (Homo sapiens) (UniProt Q9HAZ1); conditions: Compound concentration 1000.0 nM
[13] = molecular target: Casein kinase II subunit alpha (Homo sapiens) (UniProt P68400); conditions: Compound concentration 1000.0 nM
[14] = molecular target: Ephrin type-A receptor 5 (Homo sapiens) (UniProt P54756); conditions: Compound concentration 1000.0 nM
[15] = molecular target: Ephrin type-A receptor 6 (Homo sapiens) (UniProt Q9UF33); conditions: Compound concentration 1000.0 nM
[16] = molecular target: Mitogen-activated protein kinase 6 (Homo sapiens) (UniProt Q16659); conditions: Compound concentration 1000.0 nM
[17] = molecular target: Rhodopsin kinase GRK7 (Homo sapiens) (UniProt Q8WTQ7); conditions: Compound concentration 1000.0 nM
[18] = molecular target: Inhibitor of nuclear factor kappa-B kinase subunit alpha (Homo sapiens) (UniProt O15111); conditions: Compound concentration 1000.0 nM
[19] = molecular target: Tyrosine-protein kinase JAK2 (Homo sapiens) (UniProt O60674); conditions: Compound concentration 1000.0 nM
[20] = molecular target: Tyrosine-protein kinase Lck (Homo sapiens) (UniProt P06239); conditions: Compound concentration 1000.0 nM
[21] = molecular target: Serine/threonine-protein kinase MARK1 (Homo sapiens) (UniProt Q9P0L2); conditions: Compound concentration 1000.0 nM
[22] = molecular target: Dual specificity mitogen-activated protein kinase kinase 1 (Homo sapiens) (UniProt Q02750); conditions: Compound concentration 1000.0 nM
[23] = molecular target: Maternal embryonic leucine zipper kinase (Homo sapiens) (UniProt Q14680); conditions: Compound concentration 1000.0 nM
[24] = molecular target: Serine/threonine-protein kinase 4 (Homo sapiens) (UniProt Q13043); conditions: Compound concentration 1000.0 nM
[25] = molecular target: Serine/threonine-protein kinase 24 (Homo sapiens) (UniProt Q9Y6E0); conditions: Compound concentration 1000.0 nM
[26] = molecular target: Serine/threonine-protein kinase Nek2 (Homo sapiens) (UniProt P51955); conditions: Compound concentration 1000.0 nM
[27] = molecular target: Mitogen-activated protein kinase kinase kinase 14 (Homo sapiens) (UniProt Q99558); conditions: Compound concentration 1000.0 nM
[28] = molecular target: Serine/threonine-protein kinase OSR1 (Homo sapiens) (UniProt O95747); conditions: Compound concentration 1000.0 nM
[29] = molecular target: Mitogen-activated protein kinase 12 (Homo sapiens) (UniProt P53778); conditions: Compound concentration 1000.0 nM
[30] = molecular target: Cyclin-dependent kinase 14 (Homo sapiens) (UniProt O94921); conditions: Compound concentration 1000.0 nM
[31] = molecular target: Serine/threonine-protein kinase pim-2 (Homo sapiens) (UniProt Q9P1W9); conditions: Compound concentration 1000.0 nM
[32] = molecular target: Serine/threonine-protein kinase N1 (Homo sapiens) (UniProt Q16512); conditions: Compound concentration 1000.0 nM
[33] = molecular target: Protein kinase C iota type (Homo sapiens) (UniProt P41743); conditions: Compound concentration 1000.0 nM
[34] = test system: Proto-oncogene tyrosine-protein kinase receptor Ret (Homo sapiens), P07949 [V804L]; conditions: Compound concentration 1000.0 nM
[35] = molecular target: Ribosomal protein S6 kinase alpha-2 (Homo sapiens) (UniProt Q15349); conditions: Compound concentration 1000.0 nM
[36] = molecular target: Serine/threonine-protein kinase VRK2 (Homo sapiens) (UniProt Q86Y07); conditions: Compound concentration 1000.0 nM
[37] = molecular target: 5-hydroxytryptamine receptor 1B (Homo sapiens) (UniProt P28222); conditions: Compound concentration 10.0 uM
[38] = molecular target: T1, Alpha-2A adrenergic receptor (Homo sapiens) (UniProt P08913); conditions: Compound concentration 10.0 uM
T1 sequence (whole entry): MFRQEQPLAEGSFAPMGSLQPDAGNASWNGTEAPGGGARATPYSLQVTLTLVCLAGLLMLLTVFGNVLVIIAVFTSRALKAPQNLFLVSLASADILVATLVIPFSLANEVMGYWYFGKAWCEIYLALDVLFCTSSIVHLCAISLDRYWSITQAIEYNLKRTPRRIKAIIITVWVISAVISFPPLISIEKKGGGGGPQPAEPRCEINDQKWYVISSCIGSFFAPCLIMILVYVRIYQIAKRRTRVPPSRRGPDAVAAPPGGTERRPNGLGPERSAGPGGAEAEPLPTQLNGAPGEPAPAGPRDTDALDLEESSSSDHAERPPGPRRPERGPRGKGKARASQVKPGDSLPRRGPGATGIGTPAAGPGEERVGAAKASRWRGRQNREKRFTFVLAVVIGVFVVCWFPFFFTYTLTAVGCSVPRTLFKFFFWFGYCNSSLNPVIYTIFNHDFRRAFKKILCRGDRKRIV

Calcium/calmodulin-dependent protein kinase type 1D (Homo sapiens), sequence (Q8IU85 whole entry, looked up): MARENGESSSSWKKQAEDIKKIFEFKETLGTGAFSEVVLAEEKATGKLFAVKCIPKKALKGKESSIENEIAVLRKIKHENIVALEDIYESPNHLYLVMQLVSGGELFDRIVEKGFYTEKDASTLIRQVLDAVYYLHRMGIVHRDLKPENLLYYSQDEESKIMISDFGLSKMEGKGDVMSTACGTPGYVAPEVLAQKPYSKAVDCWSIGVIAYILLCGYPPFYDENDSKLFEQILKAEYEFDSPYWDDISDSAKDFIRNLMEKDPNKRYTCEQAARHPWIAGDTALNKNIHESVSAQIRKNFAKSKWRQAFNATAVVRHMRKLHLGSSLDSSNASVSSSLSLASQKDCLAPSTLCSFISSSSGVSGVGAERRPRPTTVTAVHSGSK
Ephrin type-A receptor 5 (Homo sapiens), sequence (P54756 whole entry): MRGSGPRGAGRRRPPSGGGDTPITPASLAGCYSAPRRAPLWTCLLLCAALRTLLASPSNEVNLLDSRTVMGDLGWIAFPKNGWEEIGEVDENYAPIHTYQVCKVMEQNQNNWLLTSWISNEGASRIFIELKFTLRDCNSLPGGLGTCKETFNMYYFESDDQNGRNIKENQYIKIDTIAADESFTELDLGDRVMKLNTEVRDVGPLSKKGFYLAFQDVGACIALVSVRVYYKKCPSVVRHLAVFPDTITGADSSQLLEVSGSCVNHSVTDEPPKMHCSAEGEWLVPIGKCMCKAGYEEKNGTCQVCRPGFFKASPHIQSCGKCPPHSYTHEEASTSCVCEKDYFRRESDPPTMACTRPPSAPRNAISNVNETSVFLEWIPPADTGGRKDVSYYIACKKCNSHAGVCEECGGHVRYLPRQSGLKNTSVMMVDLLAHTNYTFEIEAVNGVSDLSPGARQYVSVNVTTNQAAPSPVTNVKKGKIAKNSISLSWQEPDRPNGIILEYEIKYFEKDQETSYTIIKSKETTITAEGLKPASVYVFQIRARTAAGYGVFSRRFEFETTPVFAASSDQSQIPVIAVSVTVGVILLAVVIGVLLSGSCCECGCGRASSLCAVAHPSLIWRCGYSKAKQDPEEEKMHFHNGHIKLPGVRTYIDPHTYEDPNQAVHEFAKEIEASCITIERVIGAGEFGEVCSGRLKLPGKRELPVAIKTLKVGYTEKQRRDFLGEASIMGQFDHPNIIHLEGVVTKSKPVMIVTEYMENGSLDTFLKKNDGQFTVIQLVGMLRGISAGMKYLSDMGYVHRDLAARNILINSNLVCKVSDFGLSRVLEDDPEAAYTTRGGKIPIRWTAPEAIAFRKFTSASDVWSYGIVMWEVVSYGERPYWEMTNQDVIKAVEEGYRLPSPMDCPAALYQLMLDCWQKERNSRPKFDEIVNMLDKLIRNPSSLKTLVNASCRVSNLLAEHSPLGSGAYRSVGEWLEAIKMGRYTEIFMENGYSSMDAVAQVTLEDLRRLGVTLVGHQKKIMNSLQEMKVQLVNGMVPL
Calcium/calmodulin-dependent protein kinase kinase 1 (Homo sapiens), sequence (Q8N5S9 whole entry, looked up): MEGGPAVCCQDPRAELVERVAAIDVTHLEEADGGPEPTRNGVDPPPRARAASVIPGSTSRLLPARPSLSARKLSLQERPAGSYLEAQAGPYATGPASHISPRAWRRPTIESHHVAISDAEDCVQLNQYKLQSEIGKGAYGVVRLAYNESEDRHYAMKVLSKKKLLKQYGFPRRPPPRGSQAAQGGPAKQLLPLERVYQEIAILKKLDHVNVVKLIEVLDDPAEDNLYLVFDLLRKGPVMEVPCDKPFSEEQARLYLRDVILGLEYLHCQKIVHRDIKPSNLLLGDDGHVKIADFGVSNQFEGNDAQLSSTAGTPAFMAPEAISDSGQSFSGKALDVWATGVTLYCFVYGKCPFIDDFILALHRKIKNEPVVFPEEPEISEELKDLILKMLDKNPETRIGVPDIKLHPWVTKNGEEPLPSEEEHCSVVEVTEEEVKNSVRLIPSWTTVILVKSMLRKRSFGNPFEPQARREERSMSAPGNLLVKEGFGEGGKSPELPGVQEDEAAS
Tyrosine-protein kinase Lck (Homo sapiens), sequence (P06239 2-509 limits assumed): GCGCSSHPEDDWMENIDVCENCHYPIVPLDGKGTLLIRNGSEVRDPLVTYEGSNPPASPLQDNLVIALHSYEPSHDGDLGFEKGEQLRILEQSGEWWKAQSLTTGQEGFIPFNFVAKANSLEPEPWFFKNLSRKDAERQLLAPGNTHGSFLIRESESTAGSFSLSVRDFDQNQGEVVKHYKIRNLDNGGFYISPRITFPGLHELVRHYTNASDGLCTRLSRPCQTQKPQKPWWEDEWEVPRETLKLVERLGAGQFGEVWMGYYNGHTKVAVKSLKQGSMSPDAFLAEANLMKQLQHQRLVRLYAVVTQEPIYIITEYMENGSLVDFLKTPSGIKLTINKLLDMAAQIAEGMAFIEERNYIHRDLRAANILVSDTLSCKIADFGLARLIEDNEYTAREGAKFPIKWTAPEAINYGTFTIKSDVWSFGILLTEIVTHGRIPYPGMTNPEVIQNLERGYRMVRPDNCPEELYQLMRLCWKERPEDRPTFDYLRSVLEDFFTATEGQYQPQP
Casein kinase II subunit alpha (Homo sapiens), sequence (P68400 whole entry, looked up): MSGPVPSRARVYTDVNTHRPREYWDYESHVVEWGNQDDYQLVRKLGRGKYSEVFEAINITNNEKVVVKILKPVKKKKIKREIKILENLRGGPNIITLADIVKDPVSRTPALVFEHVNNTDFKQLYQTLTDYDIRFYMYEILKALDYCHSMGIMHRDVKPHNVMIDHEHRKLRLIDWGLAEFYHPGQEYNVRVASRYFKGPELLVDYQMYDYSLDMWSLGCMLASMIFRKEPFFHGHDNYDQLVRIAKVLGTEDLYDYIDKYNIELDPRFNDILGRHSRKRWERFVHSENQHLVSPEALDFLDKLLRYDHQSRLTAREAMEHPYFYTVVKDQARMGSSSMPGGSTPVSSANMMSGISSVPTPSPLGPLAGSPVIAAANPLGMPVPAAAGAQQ
Rhodopsin kinase GRK7 (Homo sapiens), sequence (Q8WTQ7 whole entry): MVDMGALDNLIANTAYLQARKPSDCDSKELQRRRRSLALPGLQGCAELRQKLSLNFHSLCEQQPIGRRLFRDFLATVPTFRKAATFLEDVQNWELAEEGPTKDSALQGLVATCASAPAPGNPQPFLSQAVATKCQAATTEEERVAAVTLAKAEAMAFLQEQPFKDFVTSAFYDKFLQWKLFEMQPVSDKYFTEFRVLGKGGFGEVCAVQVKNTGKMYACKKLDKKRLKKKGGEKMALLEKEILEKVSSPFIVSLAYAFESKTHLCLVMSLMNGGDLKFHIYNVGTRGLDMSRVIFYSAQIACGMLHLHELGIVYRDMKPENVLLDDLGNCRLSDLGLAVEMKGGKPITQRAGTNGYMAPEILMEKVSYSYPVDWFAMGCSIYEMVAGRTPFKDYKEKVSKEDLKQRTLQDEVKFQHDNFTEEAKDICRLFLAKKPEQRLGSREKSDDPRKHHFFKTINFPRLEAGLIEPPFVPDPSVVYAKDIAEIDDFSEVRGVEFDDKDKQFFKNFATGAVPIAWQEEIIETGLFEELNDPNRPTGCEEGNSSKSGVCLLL
Serine/threonine-protein kinase Nek2 (Homo sapiens), sequence (P51955 whole entry): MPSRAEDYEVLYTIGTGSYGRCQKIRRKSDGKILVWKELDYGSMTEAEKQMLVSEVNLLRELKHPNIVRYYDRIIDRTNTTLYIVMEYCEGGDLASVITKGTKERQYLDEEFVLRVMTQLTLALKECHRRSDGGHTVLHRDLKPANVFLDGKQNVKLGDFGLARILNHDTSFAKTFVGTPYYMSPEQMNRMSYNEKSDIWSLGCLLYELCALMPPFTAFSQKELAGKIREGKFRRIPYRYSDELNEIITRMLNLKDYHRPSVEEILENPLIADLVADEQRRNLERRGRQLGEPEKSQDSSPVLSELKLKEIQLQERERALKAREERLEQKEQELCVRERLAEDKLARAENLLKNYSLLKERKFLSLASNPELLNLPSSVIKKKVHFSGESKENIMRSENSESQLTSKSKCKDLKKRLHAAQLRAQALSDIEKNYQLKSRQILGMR
Mitogen-activated protein kinase 12 (Homo sapiens), sequence (P53778 whole entry): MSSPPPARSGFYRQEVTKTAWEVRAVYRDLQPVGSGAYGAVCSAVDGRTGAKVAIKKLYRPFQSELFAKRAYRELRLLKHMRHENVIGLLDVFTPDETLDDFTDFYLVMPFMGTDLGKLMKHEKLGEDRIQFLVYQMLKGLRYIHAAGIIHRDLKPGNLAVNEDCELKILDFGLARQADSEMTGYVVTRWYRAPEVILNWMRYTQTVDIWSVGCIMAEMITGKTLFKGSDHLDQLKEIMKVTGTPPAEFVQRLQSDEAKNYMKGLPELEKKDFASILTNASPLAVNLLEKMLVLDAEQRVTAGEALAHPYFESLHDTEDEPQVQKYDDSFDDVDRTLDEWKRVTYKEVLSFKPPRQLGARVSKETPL
Maternal embryonic leucine zipper kinase (Homo sapiens), sequence (Q14680 whole entry, looked up): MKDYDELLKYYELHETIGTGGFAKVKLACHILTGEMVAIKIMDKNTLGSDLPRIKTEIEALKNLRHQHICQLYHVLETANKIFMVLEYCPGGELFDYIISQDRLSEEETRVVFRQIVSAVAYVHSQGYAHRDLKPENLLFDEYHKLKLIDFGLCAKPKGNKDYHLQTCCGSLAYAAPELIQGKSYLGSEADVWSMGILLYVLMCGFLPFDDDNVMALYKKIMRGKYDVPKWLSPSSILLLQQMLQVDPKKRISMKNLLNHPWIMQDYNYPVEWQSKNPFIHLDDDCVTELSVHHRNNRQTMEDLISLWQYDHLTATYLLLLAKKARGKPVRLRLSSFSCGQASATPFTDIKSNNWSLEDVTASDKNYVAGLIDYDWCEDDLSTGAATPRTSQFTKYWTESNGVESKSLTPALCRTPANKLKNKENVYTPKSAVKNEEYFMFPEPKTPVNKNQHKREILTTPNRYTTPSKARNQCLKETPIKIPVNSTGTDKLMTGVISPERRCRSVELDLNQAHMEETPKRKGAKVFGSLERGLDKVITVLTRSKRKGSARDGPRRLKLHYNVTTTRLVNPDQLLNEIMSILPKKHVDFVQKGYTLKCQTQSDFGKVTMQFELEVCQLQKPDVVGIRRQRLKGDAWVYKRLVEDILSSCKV

Row | SMILES | % Inhibition of Control Specific Binding (Mean n=2) [1] [%] | % Inhibition of Control Specific Binding (Mean n=2) (Rattus norvegicus) [%] | % Inhibition of Control Specific Binding (Mean n=2) [2] [%] | residual activity [3] [%] | residual activity [4] [%] | residual activity [5] [%] | residual activity [6] [%] | residual activity [7] [%] | residual activity [8] [%] | residual activity [9] [%] | residual activity [10] [%] | residual activity [11] [%] | residual activity [12] [%] | residual activity [13] [%] | residual activity [14] [%] | residual activity [15] [%] | residual activity [16] [%] | residual activity [17] [%] | residual activity [18] [%] | residual activity [19] [%] | also measured
1 | O=C(NS(=O)(=O)c1ccc(NCC2CCOCC2)c([N+](=O)[O-])c1)c1ccc(N2CCN(Cc3ccc(C(F)(F)F)cc3-c3ccc(Cl)cc3)CC2)cc1Oc1cnc2[nH]ccc2c1 [A-1210227] | 10 | -4.8 | -14.5 | 98 | 94 | 100 | 92 | 92 | 100 | 100 | 95 | 91 | 100 | 83 | 76 | 100 | 100 | 78 | 81 | 90 | residual activity [20]: 100%; residual activity [21]: 81%; residual activity [22]: 92%; residual activity [23]: 73%; residual activity [24]: 94%; residual activity [25]: 100%; residual activity [26]: 100%; residual activity [27]: 65%; residual activity [28]: 83%; residual activity [29]: 50%; residual activity [30]: 100%; residual activity [31]: 73%; residual activity [32]: 100%; residual activity [33]: 100%; residual activity [34]: 100%; residual activity [35]: 100%; residual activity [36]: 89%; inhibition [37]: -6.15%; inhibition [38]: 9.67%
2 | CO[C@H]1CC[C@H](CNc2ccc(S(=O)(=O)NC(=O)c3ccc(N4CCN(CC5=C(c6ccc(Cl)cc6)CC(C)(C)CC5)CC4)cc3Oc3cnc4[nH]ccc4c3)cc2[N+](=O)[O-])CC1 [A-1211212] | -2.7 | -12.6 | 16.2 | 78 | 92 | 81 | 80 | 83 | 95 | 91 | 89 | 74 | 58 | 89 | 78 | 99 | 81 | 100 | 100 | 89 | residual activity [20]: 73%; residual activity [21]: 74%; residual activity [22]: 99%; residual activity [23]: 67%; residual activity [24]: 84%; residual activity [25]: 75%; residual activity [26]: 100%; residual activity [27]: 100%; residual activity [28]: 76%; residual activity [29]: 47%; residual activity [30]: 100%; residual activity [31]: 88%; residual activity [32]: 83%; residual activity [33]: 79%; residual activity [34]: 88%; residual activity [35]: 71%; residual activity [36]: 71%; inhibition [37]: 6.23%; inhibition [38]: 12.5%
